Legend:
[1] = Mouse maximum tolerated dose (MTD) experiment; settings: in vivo, mice, oral, administered 7 days then observed 7 days
Description: In the mouse MTD experiment, the mice were administrated with the present compounds.
Healthy mice, having a small difference in body's weights, were chosen. The chosen mice were placed in different layers of cages according to their body's weights. In each layer, the mice were randomly divided into groups. In each group, there were three mice.
The administration dosages were 1000, 500, 250, 125, 62.5 and 31.25 mg/kg respectively and each two dosages differed by a factor of 2. For each of administration dosages, three mice were allotted. The mice were administrated with the present compounds for 7 days and then observed for the next 7 days without the present compounds.
The present compounds were orally administrated with the mice according to the administration dosage and the body weight.

A431 = assay: In vitro cell experiment (MTT), A431; format: cell-based; settings: A-431, 72 h, human epidermoid carcinoma (EGFR1 overexpressing)
Description: (§1) Cells in logarithmic growth phase were seeded at a certain density in a 96-well plate (200 μL/well). The cells were allowed to grow for 24 h and subsequently treated with different concentrations of drugs (including a blank group and a control group) and incubated for 72 h at 37° C. Each concentration in a given experiment was tested in triplicate. After 72 h of exposure, 20 μL of the MTT labeling reagent was added to the medium (the final concentration of MTT was 0.5 mg/mL), and the cells were incubated for additional 4 h at 37° C. Following this process, 180 μL of the medium was removed and 130 μL of DMSO was added to each well, or the medium was completely removed and 150 μL of DMSO was added to each well. Then the plate was shaken and mixed in a micro-oscillator. Finally the optical density (OD) of each sample was measured in a micro-plate reader at 550 nm. Cell inhibition rate was calculated according to the following formula: […]
(§2) According to cell inhibition rates, IC50 was calculated by LOGIT method. The experiments were repeated twice and the data was expressed as means±SD.

HT-29 = assay: In vitro cell experiment (MTT), HT-29; format: cell-based; settings: 72 h, human colon carcinoma cells (expressing both c-KIT and PDGFR)
Description: as §1, §2

HCC827 = assay: In vitro cell experiment (MTT), HCC827; format: cell-based; settings: 72 h, human non-small cell lung carcinoma (EGFR1 19 exon mutation)
Description: as §1, §2

HUVEC = assay: In vitro cell experiment (MTT), HUVEC; format: cell-based; settings: 72 h, human umbilical vein endothelial cell (KDR overexpressing)
Description: as §1, §2

Eca109 = assay: In vitro cell experiment (MTT), Eca109; format: cell-based; settings: ECa-109, 72 h, human esophageal carcinoma cells
Description: as §1, §2

H292 = assay: In vitro cell experiment (MTT), H292; format: cell-based; settings: NCI-H292, 72 h, human lung carcinoma cells (EGFR1 overexpressing)
Description: as §1, §2

HCT116 = assay: In vitro cell experiment (MTT), HCT116; format: cell-based; settings: HCT-116, 72 h, human colon carcinoma cells
Description: as §1, §2

A375 = assay: In vitro cell experiment (MTT), A375; format: cell-based; settings: A-375, 72 h, human melanoma cells (KDR expressing)
Description: as §1, §2

A549 = assay: In vitro cell experiment (MTT), A549; format: cell-based; settings: 72 h, human non-small-cell lung carcinoma cells (EGFR1 wildtype)
Description: as §1, §2

SK-OV-3 = assay: In vitro cell experiment (MTT), SK-OV-3; format: cell-based; settings: 72 h, human ovarian carcinoma cells (EGFR2 overexpressing)
Description: as §1, §2

A498 = assay: In vitro cell experiment (MTT), A498; format: cell-based; settings: 72 h, human renal carcinoma cells
Description: as §1, §2

Bel-7402 = assay: In vitro cell experiment (MTT), Bel-7402; format: cell-based; settings: 72 h, human hepatoma carcinoma cells
Description: as §1, §2

3T3swiss = assay: In vitro cell experiment (MTT), 3T3swiss; format: cell-based; settings: Fibroblast, 72 h, mouse fibroblasts (PDGFR overexpressing)
Description: as §1, §2

PC-9 = assay: In vitro cell experiment (MTT), PC-9; format: cell-based; settings: 72 h, human non-small-cell lung carcinoma cells (EGFR1 19 exon mutation)
Description: as §1, §2

TT = assay: In vitro cell experiment (MTT), TT; format: cell-based; settings: 72 h, human thyroid carcinoma cells (RET C634W mutation)
Description: as §1, §2

SGC7901 = assay: In vitro cell experiment (MTT), SGC7901; format: cell-based; settings: SGC-7901, 72 h, human gastric carcinoma cells
Description: as §1, §2

CFPAC-1 = assay: In vitro cell experiment (MTT), CFPAC-1; format: cell-based; settings: 72 h, human pancreatic carcinoma cells
Description: as §1, §2

| SMILES | MTD [1] [mg/kg] | IC50 (A431) [nM] | IC50 (HT-29) [nM] | IC50 (HCC827) [nM] | IC50 (H292) [nM] | IC50 (A549) [nM] | IC50 (SK-OV-3) [nM] | IC50 (PC-9) [nM] | also measured |
| --- | --- | --- | --- | --- | --- | --- | --- | --- | --- |
| COc1cc2c(Nc3ccc(Br)cc3F)ncnc2cc1OCc1ccc2c(c1)OCO2 [Compound 1, 4-(4-bromo-2-fluoroanilino)-6-methoxy-7-((1,3-benzodioxole-5-yl)methoxy)quinazoline] | 500 to 1000 | 1410 | 2820 |  |  |  |  |  |  |
| COc1cc2c(Nc3ccc(Br)cc3F)ncnc2cc1OCCN1CCCC1 [Compound 2, 4-(4-bromo-2-fluoroanilino)-6-methoxy-7-((2-pyrrolidine-1-yl)ethoxy)quinazoline] |  |  |  | 5.6 | 46.3 |  |  |  | IC50 (HUVEC): 40.4 nM; IC50 (Eca109): 5800 nM; IC50 (HCT116): 1080 nM; IC50 (A375): 185 nM |
| COc1cc2c(Nc3ccc(Br)cc3F)ncnc2cc1OCCCCCC(N)=O [Compound 6, 6-(4-(4-bromo-2-fluoroanilino)-6-methoxyquinazolin-7-yl-oxy)hexanamide] | > 1000 | 2100 |  | 4.7 | 46.9 | 3930 | 2650 |  | IC50 (HUVEC): 37.6 nM |
| COc1cc2c(Nc3ccc(Br)cc3F)ncnc2cc1OCCCn1ccnc1 [Compound 14, 4-(4-bromo-2-fluoroanilino)-6-methoxy-7-(3-(1H-imidazol-1-yl)propoxy)quinazoline] | 62.5 to 125 |  |  | 8.9 | 37.4 |  | 2880 |  | IC50 (A498): 2730 nM; IC50 (HCT116): 913 nM; IC50 (A375): 161 nM; IC50 (Bel-7402): 5940 nM |
| COc1cc2c(Nc3ccc(Br)cc3F)ncnc2cc1OCC1CCOCC1 [Compound 15, 4-(4-bromo-2-fluoroanilino)-6-methoxy-7-((tetrahydropyran-4-yl)methoxy)quinazoline] |  | 2950 |  |  |  |  |  |  |  |
| COc1cc2c(Nc3ccc(F)c(Cl)c3)ncnc2cc1OCCN1CCCC1 [Compound 20, 4-(3-chloro-4-fluoroanilino)-6-methoxy-7-(2-(pyrrolidine-1-yl)ethoxy)quinazoline] | 125 to 250 | 2140 | 2230 | 2.9 |  | 2680 |  |  | IC50 (3T3swiss): 1720 nM; IC50 (Bel-7402): 5740 nM |
| COc1cc2c(Nc3ccc(Br)cc3F)ncnc2cc1OCCCC(N)=O [Compound 23, 4-(4-(4-bromo-2-fluoroanilino)-6-methoxyquinazolin-7-yl-oxy)butanamide] |  |  |  | 5 |  | 1410 | 3360 |  | IC50 (3T3swiss): 2150 nM |
| COc1cc2c(Nc3ccc(F)c(Cl)c3)ncnc2cc1OCCCCCC(N)=O [Compound 24, 6-(4-(3-chloro-4-fluoroanilino)-6-methoxyquinazolin-7-yl-oxy)hexanamide] | 125 to 250 |  | 1840 | 5.6 | 81.8 | 2940 | 2450 |  |  |
| COc1cc2c(Nc3ccc(F)c(Cl)c3)ncnc2cc1OCc1cnc(C)s1 [Compound 27, 4-(3-chloro-4-fluoroanilino)-6-methoxy-7-((2-methylthiazol-5-yl)methoxy)quinazoline] | 500 to 1000 |  | 2920 | 4.6 | 78.3 | 3890 |  |  |  |
| COc1cc2c(Nc3ccc(Br)cc3F)ncnc2cc1OCCCCCC(=O)N(C)C [Compound 32, N, N-dimethyl-6-(4-(4-bromo-2-fluoroanilino)-6-methoxyquinazolin-7-yloxy)hexanamide] | 500 to 1000 |  |  | 11 |  | 2700 |  | 6.7 |  |
| COc1cc2c(Nc3ccc(Br)cc3F)ncnc2cc1OCCCCC(N)=O [Compound 33, 5-(4-(4-bromo-2-fluoroanilino)-6-methoxyquinazolin-7-yl-oxy)pentanamide] | 62.5 to 125 |  |  | 9.5 | 73.4 | 3570 |  | 8.3 |  |
| COc1cc2c(Nc3ccc(Br)cc3F)ncnc2cc1OCCn1ccnc1 [Compound 34, 4-(4-bromo-2-fluoroanilino)-6-methoxy-7-(2-(1H-imidazol-1-yl)ethoxy)quinazoline] | 125 to 250 |  |  | 8.2 | 90.8 | 1290 |  | 5.7 |  |
| COc1cc2c(Nc3ccc(Br)cc3F)ncnc2cc1OCC1CCN(C)CC1 [Vandetanib, reference compound] |  | 3230 | 3230 | 19.3 | 167 | 4450 | 3510 | 14.9 | IC50 (TT): 192 nM; IC50 (3T3swiss): 2530 nM; IC50 (A498): 2960 nM; IC50 (Eca109): 6860 nM; IC50 (HCT116): 1210 nM; IC50 (SGC7901): 6850 nM; IC50 (CFPAC-1): 6260 nM; IC50 (Bel-7402): 6850 nM |
